From ChEMBL document CHEMBL1909046, “DrugMatrix in vitro pharmacology data”

How the values were obtained:
[1] = molecular target: Kappa-type opioid receptor (Homo sapiens, UniProt P41145); experiment: DRUGMATRIX: Opiate kappa (OP2, KOP) radioligand binding (ligand: [3H] Diprenorphine); format: cell membranes, HEK293, Membrane; conditions: hek293; Not Active = under 50% inhibition at 10 µM
[2] = molecular target: Sodium-dependent noradrenaline transporter (Homo sapiens, UniProt P23975); experiment: DRUGMATRIX: Norepinephrine Transporter radioligand binding (ligand: [125I] RTI-55); format: cell membranes, MDCK, Membrane; conditions: mdck; Not Active = under 50% inhibition at 10 µM
Chain of Sodium-dependent noradrenaline transporter (P23975 whole entry): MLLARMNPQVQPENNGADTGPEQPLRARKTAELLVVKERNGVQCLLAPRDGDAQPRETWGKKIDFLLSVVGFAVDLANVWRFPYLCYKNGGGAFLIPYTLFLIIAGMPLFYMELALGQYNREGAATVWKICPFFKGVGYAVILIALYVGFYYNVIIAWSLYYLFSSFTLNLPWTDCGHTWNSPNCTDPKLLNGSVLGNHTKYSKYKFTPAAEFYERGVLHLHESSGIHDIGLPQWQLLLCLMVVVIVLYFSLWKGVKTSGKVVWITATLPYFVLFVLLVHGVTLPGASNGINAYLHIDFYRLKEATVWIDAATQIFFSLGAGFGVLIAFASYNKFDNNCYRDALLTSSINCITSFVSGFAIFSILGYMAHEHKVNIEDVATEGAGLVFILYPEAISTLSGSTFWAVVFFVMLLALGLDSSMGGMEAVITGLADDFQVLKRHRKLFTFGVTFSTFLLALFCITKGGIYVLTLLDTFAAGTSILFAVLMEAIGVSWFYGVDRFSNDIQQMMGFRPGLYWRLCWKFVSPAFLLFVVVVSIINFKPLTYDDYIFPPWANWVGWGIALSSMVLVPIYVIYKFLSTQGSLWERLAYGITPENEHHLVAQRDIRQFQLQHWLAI

[3] = DRUGMATRIX: Phosphodiesterase PDE3 enzyme inhibition (substrate: [3H]cAMP + cAMP); format: tissue-based, Homo sapiens; conditions: platelet; Not Active = under 50% inhibition at 10 µM
[4] = molecular target: T1, Thromboxane-A synthase (Homo sapiens, UniProt P24557); experiment: biochemical; format: tissue-based, Platelet; conditions: platelet;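 also: enzyme inhibition assay with PGH2 supplied as substrate; in other assays of this panel Not Active means under 50% inhibition at 10 µM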
T1 sequence (P24557 whole entry): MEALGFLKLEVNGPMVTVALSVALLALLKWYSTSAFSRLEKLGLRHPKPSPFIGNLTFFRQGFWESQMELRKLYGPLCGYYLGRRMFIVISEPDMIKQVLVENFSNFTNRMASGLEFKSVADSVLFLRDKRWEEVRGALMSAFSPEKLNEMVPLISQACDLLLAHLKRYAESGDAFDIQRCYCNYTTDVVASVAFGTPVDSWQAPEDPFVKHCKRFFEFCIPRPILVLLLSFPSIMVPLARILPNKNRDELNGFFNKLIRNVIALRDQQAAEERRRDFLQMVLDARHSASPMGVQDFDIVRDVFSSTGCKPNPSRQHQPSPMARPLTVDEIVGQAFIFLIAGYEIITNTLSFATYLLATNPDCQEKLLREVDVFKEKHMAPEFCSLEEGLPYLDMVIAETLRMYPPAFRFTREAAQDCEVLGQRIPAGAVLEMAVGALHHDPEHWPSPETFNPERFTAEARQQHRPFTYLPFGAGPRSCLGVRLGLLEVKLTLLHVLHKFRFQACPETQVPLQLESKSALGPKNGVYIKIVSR

[5] = molecular target: Carbonic anhydrase 2 (Homo sapiens, UniProt P00918); experiment: DRUGMATRIX: Carbonic Anhydrase II enzyme inhibition (substrate: 4-Nitrophenyl acetate (4-NPA)); format: tissue-based, Erythrocyte; conditions: erythrocyte; Not Active = under 50% inhibition at 10 µM
[6] = molecular target: Cannabinoid receptor 1 (Homo sapiens, UniProt P21554); format: cell membranes, Membrane; conditions: chem-1; also: in other assays of this panel Not Active means under 50% inhibition at 10 µM
Chain of Cannabinoid receptor 1 (P21554 whole entry): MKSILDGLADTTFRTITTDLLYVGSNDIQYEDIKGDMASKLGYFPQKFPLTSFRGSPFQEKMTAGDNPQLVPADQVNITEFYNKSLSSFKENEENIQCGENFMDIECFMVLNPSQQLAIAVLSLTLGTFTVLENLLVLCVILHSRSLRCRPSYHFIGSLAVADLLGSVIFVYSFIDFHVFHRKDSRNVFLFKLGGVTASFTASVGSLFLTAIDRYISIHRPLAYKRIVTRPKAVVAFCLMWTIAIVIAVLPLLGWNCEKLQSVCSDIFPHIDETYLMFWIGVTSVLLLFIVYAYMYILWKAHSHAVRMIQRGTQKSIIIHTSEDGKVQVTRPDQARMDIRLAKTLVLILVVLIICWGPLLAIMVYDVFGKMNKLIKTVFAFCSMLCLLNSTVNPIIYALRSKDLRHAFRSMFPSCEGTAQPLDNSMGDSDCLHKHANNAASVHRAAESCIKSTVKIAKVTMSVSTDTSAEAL

[7] = molecular target: Cytochrome P450 2C9 (Homo sapiens, UniProt P11712); conditions: bti-tn-5b1-4; also: in other assays of this panel Not Active means under 50% inhibition at 10 µM
[8] = molecular target: Melanocortin receptor 5 (Homo sapiens, UniProt P33032); format: cell membranes, HEK293, Membrane; conditions: hek293; also: in other assays of this panel Not Active means under 50% inhibition at 10 µM
Chain of Melanocortin receptor 5 (P33032 whole entry): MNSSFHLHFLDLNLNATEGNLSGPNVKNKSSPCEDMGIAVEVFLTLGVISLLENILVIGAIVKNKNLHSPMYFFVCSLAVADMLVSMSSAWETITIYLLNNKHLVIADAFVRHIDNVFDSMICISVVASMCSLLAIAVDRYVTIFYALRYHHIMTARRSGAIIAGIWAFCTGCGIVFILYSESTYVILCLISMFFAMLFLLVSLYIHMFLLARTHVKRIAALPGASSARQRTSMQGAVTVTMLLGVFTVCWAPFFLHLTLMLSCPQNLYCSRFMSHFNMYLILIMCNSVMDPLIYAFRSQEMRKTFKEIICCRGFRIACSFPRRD

[9] = molecular target: C-C chemokine receptor type 5 (Homo sapiens, UniProt P51681); format: cell membranes, Membrane; conditions: hek293; also: in other assays of this panel Not Active means under 50% inhibition at 10 µM
Chain of C-C chemokine receptor type 5 (P51681 whole entry): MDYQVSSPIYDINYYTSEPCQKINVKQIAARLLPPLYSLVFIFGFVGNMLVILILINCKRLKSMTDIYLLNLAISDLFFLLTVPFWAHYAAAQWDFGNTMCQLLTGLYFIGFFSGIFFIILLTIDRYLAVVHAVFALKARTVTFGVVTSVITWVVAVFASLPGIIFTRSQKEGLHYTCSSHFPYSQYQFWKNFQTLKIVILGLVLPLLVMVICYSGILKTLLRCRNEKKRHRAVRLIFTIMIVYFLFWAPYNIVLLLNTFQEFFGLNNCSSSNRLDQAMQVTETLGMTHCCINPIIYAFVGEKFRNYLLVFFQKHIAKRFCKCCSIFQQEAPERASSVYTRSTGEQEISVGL

[10] = molecular target: Prostaglandin G/H synthase 1 (Homo sapiens, UniProt P23219); experiment: biochemical; format: tissue-based, Platelet; conditions: platelet
Chain of Prostaglandin G/H synthase 1 (P23219 whole entry): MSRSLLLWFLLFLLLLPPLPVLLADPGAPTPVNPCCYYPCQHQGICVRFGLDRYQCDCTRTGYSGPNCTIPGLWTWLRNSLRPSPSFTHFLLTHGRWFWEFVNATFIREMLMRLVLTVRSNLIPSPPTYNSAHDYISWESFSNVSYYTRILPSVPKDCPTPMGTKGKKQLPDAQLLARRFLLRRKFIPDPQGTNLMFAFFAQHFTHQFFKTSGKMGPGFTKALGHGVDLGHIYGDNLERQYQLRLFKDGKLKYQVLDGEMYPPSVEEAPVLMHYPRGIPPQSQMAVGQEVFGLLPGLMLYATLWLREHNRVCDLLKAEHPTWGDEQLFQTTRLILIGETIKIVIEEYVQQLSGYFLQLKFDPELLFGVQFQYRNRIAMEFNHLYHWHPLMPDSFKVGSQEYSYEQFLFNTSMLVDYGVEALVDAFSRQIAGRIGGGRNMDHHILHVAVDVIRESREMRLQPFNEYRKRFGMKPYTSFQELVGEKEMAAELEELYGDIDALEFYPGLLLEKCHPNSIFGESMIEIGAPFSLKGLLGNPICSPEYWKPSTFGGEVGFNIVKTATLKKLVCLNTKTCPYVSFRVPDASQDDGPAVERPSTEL

[11] = molecular target: Delta-type opioid receptor (Homo sapiens, UniProt P41143); format: cell membranes, HEK293, Membrane; conditions: hek293; also: in other assays of this panel Not Active means under 50% inhibition at 10 µM
Chain of Delta-type opioid receptor (P41143 whole entry): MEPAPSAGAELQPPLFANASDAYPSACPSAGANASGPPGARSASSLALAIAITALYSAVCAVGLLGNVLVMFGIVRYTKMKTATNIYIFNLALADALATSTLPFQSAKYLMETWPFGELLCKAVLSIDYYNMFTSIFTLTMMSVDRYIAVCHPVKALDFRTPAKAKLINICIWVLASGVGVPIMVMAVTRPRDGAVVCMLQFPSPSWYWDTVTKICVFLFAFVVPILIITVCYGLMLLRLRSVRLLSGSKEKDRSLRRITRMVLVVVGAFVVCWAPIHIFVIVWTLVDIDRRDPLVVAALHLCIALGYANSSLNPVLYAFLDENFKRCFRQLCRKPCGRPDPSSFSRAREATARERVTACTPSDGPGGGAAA

[12] = molecular target: Epidermal growth factor receptor (Homo sapiens, UniProt P00533); experiment: DRUGMATRIX: Protein Tyrosine Kinase, EGF Receptor enzyme inhibition (substrate: Poly(Glu:Tyr)); format: cell-based, Insect cells; conditions: insect cells; Not Active = under 50% inhibition at 10 µM
Chain of Epidermal growth factor receptor (P00533 whole entry): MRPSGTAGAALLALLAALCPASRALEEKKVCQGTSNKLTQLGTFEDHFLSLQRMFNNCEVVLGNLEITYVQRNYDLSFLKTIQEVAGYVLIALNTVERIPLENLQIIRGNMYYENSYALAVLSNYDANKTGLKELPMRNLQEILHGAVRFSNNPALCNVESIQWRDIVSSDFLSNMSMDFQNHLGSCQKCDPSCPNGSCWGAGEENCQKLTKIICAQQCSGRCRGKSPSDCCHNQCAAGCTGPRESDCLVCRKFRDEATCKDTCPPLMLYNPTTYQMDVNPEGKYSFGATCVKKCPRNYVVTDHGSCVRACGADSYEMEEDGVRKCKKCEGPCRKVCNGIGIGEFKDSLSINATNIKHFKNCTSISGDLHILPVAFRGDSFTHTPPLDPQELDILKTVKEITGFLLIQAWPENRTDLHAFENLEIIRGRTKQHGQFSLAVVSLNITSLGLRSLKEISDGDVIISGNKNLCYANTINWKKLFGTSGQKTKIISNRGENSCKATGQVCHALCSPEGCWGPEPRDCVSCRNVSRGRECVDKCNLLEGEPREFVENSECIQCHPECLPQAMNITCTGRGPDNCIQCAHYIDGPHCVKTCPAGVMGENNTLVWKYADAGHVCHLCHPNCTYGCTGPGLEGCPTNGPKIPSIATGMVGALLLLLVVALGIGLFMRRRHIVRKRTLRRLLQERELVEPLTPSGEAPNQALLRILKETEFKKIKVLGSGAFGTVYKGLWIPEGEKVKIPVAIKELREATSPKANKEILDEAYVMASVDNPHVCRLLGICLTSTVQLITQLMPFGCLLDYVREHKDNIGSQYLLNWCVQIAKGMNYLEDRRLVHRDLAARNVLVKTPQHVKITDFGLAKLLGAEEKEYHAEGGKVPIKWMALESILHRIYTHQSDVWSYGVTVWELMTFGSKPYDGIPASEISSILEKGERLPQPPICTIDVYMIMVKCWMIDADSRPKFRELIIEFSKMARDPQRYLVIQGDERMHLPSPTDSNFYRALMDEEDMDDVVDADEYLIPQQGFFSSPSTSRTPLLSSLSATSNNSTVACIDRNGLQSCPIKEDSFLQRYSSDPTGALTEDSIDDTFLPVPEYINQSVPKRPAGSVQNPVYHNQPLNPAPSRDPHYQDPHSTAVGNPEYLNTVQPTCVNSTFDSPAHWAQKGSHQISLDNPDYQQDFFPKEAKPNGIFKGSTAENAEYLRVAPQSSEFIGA

[13] = molecular target: T2, Amine oxidase [flavin-containing] A (Homo sapiens, UniProt P21397); experiment: DRUGMATRIX: Monoamine Oxidase MAO-A enzyme inhibition (substrate: Kynuramine); parameters: species or system BTI-TN-5B1-4; conditions: bti-tn-5b1-4; Not Active = under 50% inhibition at 10 µM
T2 sequence (P21397 whole entry): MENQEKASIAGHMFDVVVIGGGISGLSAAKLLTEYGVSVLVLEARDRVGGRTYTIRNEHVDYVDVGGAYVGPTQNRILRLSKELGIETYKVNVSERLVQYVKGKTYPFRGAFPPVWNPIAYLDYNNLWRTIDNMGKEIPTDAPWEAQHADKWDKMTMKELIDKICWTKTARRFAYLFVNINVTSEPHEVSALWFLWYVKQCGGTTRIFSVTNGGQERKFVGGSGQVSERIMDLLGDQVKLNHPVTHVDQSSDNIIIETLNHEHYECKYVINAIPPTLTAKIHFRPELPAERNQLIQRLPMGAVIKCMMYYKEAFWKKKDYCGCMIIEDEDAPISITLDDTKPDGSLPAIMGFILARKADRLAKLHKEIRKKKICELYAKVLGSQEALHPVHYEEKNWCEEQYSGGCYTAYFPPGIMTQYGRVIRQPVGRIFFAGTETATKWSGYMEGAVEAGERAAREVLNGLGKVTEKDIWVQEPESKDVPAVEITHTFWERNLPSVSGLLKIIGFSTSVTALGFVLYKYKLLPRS

[14] = molecular target: T3, Type-2 angiotensin II receptor (Homo sapiens, UniProt P50052); format: cell-based; conditions: cho-k1; also: in other assays of this panel Not Active means under 50% inhibition at 10 µM
T3 sequence (P50052 whole entry): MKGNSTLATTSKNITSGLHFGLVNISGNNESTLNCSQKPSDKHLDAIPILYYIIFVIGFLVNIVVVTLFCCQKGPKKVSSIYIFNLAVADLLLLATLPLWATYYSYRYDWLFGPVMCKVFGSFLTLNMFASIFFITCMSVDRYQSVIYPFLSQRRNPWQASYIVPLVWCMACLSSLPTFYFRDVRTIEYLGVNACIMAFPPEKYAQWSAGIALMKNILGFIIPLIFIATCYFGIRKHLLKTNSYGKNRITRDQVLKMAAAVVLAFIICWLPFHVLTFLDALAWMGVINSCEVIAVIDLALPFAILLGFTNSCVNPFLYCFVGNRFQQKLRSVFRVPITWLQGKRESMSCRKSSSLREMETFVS

[15] = molecular target: Protein kinase C alpha type (Homo sapiens, UniProt P17252); format: cell-based; conditions: sf9
[16] = molecular target: T4, B2 bradykinin receptor (Homo sapiens, UniProt P30411); format: cell membranes, Membrane; conditions: chem-1; also: in other assays of this panel Not Active means under 50% inhibition at 10 µM
T4 sequence (P30411 whole entry): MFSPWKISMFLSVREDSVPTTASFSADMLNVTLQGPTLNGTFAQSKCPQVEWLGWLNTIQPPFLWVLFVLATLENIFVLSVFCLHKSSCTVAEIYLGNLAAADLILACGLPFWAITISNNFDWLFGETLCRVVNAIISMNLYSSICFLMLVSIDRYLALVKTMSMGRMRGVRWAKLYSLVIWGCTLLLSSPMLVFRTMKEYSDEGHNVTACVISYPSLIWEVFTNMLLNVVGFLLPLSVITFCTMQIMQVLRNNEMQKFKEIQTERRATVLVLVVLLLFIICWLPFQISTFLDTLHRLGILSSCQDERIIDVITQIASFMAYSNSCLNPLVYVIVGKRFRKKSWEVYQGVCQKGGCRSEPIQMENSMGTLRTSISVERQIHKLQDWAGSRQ

Chain of Kappa-type opioid receptor (P41145 whole entry): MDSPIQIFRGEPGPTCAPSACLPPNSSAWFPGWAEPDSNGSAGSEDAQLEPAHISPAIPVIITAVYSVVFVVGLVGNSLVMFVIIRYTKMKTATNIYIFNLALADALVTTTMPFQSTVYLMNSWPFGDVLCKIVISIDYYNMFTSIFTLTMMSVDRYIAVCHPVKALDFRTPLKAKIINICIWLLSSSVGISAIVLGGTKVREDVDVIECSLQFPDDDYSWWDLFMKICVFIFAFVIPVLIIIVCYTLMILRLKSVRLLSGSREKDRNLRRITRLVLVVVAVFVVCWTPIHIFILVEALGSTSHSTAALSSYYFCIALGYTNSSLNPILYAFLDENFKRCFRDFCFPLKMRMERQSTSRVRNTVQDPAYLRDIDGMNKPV

N=C(N)NCCCCNC(=N)N.O=S(=O)(O)O [ARCAINE SULFATE]
Not Active: IC50 [1] | IC50 [2] | IC50 [3] | Ki [3] | IC50 [4] | IC50 [5] | IC50 [6] | IC50 [7] | Ki [7] | IC50 [8] | IC50 [9] | IC50 [10] | IC50 [11] | IC50 [12] | IC50 [13] | IC50 [14] | IC50 [15] | IC50 [16]

NCC[C@H](O)C(=O)N[C@@H]1C[C@H](N)[C@@H](O[C@H]2O[C@H](CN)[C@@H](O)[C@H](O)[C@H]2O)[C@H](O)[C@H]1O[C@H]1O[C@H](CO)[C@@H](O)[C@H](N)[C@H]1O [AMIKACIN]
Not Active: IC50 [1] | IC50 [2] | IC50 [3] | Ki [3] | IC50 [4] | IC50 [5] | IC50 [6] | IC50 [7] | Ki [7] | IC50 [8] | IC50 [9] | IC50 [10] | IC50 [11] | IC50 [12] | IC50 [13] | IC50 [14] | IC50 [15] | IC50 [16]

C/C=C1\[C@H]2C=C(C)C[C@]1(N)c1ccc(=O)[nH]c1C2 [HUPERZINE A]
Not Active: IC50 [1] | IC50 [2] | IC50 [3] | Ki [3] | IC50 [4] | IC50 [5] | IC50 [6] | IC50 [7] | Ki [7] | IC50 [8] | IC50 [9] | IC50 [10] | IC50 [11] | IC50 [12] | IC50 [13] | IC50 [14] | IC50 [15] | IC50 [16]

CC(/C=C1\SC(=S)N(CC(=O)O)C1=O)=C\c1ccccc1
Not Active: IC50 [1] | IC50 [2] | IC50 [3] | Ki [3] | IC50 [4] | IC50 [5] | IC50 [6] | IC50 [7] | Ki [7] | IC50 [8] | IC50 [9] | IC50 [10] | IC50 [11] | IC50 [12] | IC50 [13] | IC50 [14] | IC50 [15] | IC50 [16]

CCC1(c2ccccc2)C(=O)NCNC1=O [PRIMIDONE]
Not Active: IC50 [1] | IC50 [2] | IC50 [3] | Ki [3] | IC50 [4] | IC50 [5] | IC50 [6] | IC50 [7] | Ki [7] | IC50 [8] | IC50 [9] | IC50 [10] | IC50 [11] | IC50 [12] | IC50 [13] | IC50 [14] | IC50 [15] | IC50 [16]

CCOC(=O)c1ccc(N)cc1 [BENZOCAINE]
Not Active: IC50 [1] | IC50 [2] | IC50 [3] | Ki [3] | IC50 [4] | IC50 [5] | IC50 [6] | IC50 [7] | Ki [7] | IC50 [8] | IC50 [9] | IC50 [10] | IC50 [11] | IC50 [12] | IC50 [13] | IC50 [14] | IC50 [15] | IC50 [16]

CC=CC(=O)N(CC)c1ccccc1C
Not Active: IC50 [1] | IC50 [2] | IC50 [3] | Ki [3] | IC50 [4] | IC50 [5] | IC50 [6] | IC50 [7] | Ki [7] | IC50 [8] | IC50 [9] | IC50 [10] | IC50 [11] | IC50 [12] | IC50 [13] | IC50 [14] | IC50 [15] | IC50 [16]

CC(=O)O[C@]1(C(C)=O)CC[C@H]2[C@@H]3C=C(Cl)C4=CC(=O)CC[C@]4(C)[C@H]3CC[C@@]21C [CHLORMADINONE ACETATE]
Not Active: IC50 [1] | IC50 [2] | IC50 [3] | Ki [3] | IC50 [4] | IC50 [5] | IC50 [6] | IC50 [7] | Ki [7] | IC50 [8] | IC50 [9] | IC50 [10] | IC50 [11] | IC50 [12] | IC50 [13] | IC50 [14] | IC50 [15] | IC50 [16]
